Experimental data from patent publication US8415469B2, “Compounds and methods for kinase modulation, and indications therefor” (Plexxikon Inc., priority 2005, dated 2013).
Values belong to the molecule of their own block, whether it stands above or below them.

What was measured:
Assay type in all cases: biochemical
[1] = target: T1, Kdr (Homo sapiens, UniProt P35968); assay: Z'-Lyte FRET kinase assay (Invitrogen), Kdr; settings: read-out: IC50, activity toward kinase Kdr
T1 construct: purchased Invitrogen (assay run by Invitrogen)
T1 sequence (P35968 20-1356): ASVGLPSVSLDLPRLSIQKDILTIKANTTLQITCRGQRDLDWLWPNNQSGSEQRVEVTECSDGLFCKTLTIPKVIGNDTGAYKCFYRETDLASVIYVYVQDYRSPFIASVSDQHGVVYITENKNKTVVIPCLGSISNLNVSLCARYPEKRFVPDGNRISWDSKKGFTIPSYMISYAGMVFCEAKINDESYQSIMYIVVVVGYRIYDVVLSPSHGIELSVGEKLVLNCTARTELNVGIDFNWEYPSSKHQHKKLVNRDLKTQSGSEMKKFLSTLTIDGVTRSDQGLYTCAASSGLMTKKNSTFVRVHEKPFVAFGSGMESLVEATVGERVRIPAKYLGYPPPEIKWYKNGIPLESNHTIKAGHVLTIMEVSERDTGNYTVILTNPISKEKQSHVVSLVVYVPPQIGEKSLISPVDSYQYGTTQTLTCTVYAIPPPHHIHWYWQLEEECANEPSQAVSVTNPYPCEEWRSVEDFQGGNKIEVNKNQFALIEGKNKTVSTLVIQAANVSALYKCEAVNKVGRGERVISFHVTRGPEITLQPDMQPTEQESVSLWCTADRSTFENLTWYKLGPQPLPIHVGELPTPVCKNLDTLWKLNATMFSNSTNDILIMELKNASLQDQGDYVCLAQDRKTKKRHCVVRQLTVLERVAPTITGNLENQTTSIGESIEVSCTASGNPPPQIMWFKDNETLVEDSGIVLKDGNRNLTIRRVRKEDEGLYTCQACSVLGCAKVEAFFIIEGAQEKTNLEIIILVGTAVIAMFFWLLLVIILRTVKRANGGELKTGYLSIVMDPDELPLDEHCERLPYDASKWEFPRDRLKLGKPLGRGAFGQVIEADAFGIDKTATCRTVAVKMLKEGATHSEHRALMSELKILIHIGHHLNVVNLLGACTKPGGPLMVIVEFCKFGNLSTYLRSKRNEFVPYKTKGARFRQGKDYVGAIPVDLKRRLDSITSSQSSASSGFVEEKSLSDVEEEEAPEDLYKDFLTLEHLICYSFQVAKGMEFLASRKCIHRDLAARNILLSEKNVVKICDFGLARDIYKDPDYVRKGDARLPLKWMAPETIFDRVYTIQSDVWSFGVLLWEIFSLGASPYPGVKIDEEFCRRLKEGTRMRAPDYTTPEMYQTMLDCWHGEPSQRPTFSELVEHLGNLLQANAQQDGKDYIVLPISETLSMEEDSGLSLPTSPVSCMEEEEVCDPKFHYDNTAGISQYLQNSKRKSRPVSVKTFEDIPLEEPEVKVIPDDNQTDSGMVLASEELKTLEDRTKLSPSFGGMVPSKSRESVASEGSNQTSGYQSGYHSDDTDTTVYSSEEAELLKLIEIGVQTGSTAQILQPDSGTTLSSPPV

[2] = target: T2, Btk (Homo sapiens, UniProt Q06187); assay: Z'-Lyte FRET kinase assay (Invitrogen), Btk; settings: read-out: IC50, activity toward kinase Btk
T2 construct: purchased Invitrogen (assay run by Invitrogen)
T2 sequence (Q06187 whole entry): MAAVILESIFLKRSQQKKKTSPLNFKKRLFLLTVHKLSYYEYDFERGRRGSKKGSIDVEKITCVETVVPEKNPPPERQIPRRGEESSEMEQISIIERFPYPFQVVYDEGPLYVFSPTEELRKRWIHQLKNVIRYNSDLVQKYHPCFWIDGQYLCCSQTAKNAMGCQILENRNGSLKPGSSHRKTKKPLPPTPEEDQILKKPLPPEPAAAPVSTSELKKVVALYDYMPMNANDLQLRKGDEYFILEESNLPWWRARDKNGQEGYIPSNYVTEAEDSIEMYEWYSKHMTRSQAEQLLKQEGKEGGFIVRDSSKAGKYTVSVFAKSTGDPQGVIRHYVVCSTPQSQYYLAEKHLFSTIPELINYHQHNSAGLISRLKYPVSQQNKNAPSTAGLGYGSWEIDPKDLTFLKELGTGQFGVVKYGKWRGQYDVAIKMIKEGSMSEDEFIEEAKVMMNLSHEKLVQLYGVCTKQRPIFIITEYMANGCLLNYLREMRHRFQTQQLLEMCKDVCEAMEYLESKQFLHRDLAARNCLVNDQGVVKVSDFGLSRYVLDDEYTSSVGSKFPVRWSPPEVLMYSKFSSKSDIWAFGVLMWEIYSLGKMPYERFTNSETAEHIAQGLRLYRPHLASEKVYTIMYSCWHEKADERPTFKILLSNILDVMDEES

[3] = target: T3, B-Raf V600E (Homo sapiens, UniProt P15056, V600E); assay: AlphaScreen kinase assay, B-Raf V600E; settings: read-out: IC50, activity toward kinase B-Raf V600E
T3 construct: P4254. pFastBacBD-CDC37 BRAF D437-K722-X, V600E; His6 with pFastBac HT leader (TEV site) (N); made in house; host or cells: Sf9 (baculovirus; chaperone CDC37 co-expressed)
T3 sequence (P15056 with tags, fused parts or gaps V600E): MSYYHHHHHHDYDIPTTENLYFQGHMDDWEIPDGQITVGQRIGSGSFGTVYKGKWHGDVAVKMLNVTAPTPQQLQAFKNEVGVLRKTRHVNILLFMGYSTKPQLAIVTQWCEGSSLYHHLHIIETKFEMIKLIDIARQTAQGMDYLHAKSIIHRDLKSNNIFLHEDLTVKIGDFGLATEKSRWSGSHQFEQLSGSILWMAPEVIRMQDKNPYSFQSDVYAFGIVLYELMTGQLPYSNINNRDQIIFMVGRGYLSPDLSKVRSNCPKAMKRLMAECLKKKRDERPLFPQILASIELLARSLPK

[4] = target: T4, EphB2 (Homo sapiens, UniProt P29323); assay: Z'-Lyte FRET kinase assay (Invitrogen), EphB2; settings: read-out: IC50, activity toward kinase EphB2
T4 construct: purchased Invitrogen (assay run by Invitrogen)
T4 sequence (P29323 19-1055): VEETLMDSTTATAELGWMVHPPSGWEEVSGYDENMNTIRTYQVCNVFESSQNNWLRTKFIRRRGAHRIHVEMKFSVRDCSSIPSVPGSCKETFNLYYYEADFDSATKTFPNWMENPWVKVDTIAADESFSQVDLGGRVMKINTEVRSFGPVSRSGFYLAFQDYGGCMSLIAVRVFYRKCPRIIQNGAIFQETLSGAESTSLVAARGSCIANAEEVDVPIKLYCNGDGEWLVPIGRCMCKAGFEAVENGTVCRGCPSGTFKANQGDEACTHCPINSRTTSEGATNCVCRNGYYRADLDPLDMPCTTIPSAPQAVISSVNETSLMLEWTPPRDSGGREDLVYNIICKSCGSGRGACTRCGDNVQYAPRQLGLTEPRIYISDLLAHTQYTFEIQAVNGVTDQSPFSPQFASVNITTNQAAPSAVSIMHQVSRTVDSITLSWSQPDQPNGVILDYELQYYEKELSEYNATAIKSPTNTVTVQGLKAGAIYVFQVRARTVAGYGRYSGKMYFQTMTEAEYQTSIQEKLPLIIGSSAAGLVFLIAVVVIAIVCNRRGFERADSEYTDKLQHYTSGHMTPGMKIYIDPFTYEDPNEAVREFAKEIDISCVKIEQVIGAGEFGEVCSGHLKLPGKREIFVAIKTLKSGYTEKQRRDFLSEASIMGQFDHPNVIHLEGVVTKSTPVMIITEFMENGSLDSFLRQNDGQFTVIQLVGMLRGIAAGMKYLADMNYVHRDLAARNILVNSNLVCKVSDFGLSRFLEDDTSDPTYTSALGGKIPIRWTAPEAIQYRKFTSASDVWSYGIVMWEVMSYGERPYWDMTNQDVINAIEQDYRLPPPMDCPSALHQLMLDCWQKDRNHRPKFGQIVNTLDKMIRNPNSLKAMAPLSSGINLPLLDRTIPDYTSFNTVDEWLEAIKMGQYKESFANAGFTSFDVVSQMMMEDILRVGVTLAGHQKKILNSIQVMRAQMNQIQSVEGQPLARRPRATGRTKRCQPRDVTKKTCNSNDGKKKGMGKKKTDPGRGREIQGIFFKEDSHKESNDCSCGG
Excerpt: The effect of potential modulators of kinase activity can be measured in a variety of different assays known in the art. For example, direct radiometric, indirect FRET or AlphaScreen assays may be used to assess the level of phosphorylation of a substrate in the presence of test compounds in order to determine the inhibitory affect of the compound on the kinase. Invitrogen (Carlsbad, Calif.) uses a FRET based assay for Btk, EGFR, EphB2, Flt3, lrak4, Kdr, MAP2K1, MAPKAPK2, PDGFRB, PKC theta, Stk6 and Yes. For these assays, compounds of the invention were screened by Invitrogen using Z′-Lyte™ kinase assay.
Briefly, the Invitrogen kinase assay involves use of a specific peptide substrate optimized for each kinase, containing a fluorophore at each end that make up the FRET pair. The peptide sensitivity to proteolytic cleavage depends on phosphorylation of the peptide. Non-phosphorylated peptide is cleaved by a protease while peptide phosphorylated by the kinase is not cleaved. Cleavage of the peptide disrupts the FRET between the donor (coumarin) and acceptor (fluorescein) fluorophores, resulting in an increase in the ratio of donor emission to acceptor emission. The emission ratio of coumarin to fluorescein is used to assess the reaction progress. The extent of phosphorylation is determined from the emission ratio, which is low when the kinase is active (phosphorylated peptide is not cleaved, FRET pair connected) or higher for inhibited kinase (non-phosphorylated peptide is cleaved, FRET pair separated). Thus, the assay involves a kinase reaction in the presence of varying concentrations of a given compound, a development reaction with site specific protease, and detection of the fluorescent emission ratio of coumarin and fluorscein. […] Reaction conditions for each kinase are determined to provide optimal reaction times, incubation temperature, kinase and ATP concentrations. Test samples are made up in 1× kinase buffer (50 mM HEPES pH 7.5, 50 mM MgCl2, 5 mM EGTA, 0.05% BRIJ-35) and compound at desired concentration prepared in DMSO such that the final DMSO is 1%. […] Typically, assay plates are prepared to 10 μl final volume per sample, adding 2.5 μl of compound at 4× the desired concentration in 4% DMSO (serial dilution of compound provides concentration curve), 5 μl of the desired kinase mixed with Z′-LYTE™ peptide substrate (2× in 2× kinase buffer, final peptide at 2 μM), and 2.5 μl of 4×ATP solution. All kinase except for MAP2K1 were at 10 μM ATP in the kinase reaction, while MAP2K1 was at 100 μM. Samples are mixed and the kinase reaction is incubated 1 hour at room temperature, after which 5 μl of development solution is added and mixed. After incubation for another 1 hour at room temperature, 5 μl of stop reagent is added to each sample and mixed. The fluorescence signals are measured to determine the emission ratio.

[5] = target: T5, Yes (Homo sapiens, UniProt P07947); assay: Z'-Lyte FRET kinase assay (Invitrogen), Yes; settings: read-out: IC50, activity toward kinase Yes
T5 construct: purchased Invitrogen (Carlsbad, Calif.), screening service
T5 sequence (P07947 whole entry): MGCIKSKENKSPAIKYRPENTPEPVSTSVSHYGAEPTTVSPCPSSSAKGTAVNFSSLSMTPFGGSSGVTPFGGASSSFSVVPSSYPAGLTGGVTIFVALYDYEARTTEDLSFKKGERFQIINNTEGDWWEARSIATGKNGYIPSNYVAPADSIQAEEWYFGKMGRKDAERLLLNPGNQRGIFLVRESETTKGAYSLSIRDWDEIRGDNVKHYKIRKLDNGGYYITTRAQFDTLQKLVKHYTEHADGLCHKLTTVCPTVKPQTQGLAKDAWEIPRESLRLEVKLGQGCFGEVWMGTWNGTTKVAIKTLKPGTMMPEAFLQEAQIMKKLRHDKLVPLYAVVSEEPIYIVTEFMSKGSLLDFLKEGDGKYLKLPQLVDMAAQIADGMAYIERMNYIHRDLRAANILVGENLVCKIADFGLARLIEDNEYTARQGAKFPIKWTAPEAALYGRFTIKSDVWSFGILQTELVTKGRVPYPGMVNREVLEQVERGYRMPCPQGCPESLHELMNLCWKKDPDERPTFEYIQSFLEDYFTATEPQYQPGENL
Procedure, shortened: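 Inhibition was inferred from protease cleavage of non-phosphorylated peptide, measured as a coumarin/fluorescein ratio. Kinase reactions used 10 μM ATP for 1 h at room temperature.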

[6] = target: Gsk3β (Homo sapiens, UniProt P49841); assay: AlphaScreen kinase assay, Gsk3β; settings: read-out: IC50, activity toward kinase Gsk3β
Gsk3β, sequence (P49841 whole entry): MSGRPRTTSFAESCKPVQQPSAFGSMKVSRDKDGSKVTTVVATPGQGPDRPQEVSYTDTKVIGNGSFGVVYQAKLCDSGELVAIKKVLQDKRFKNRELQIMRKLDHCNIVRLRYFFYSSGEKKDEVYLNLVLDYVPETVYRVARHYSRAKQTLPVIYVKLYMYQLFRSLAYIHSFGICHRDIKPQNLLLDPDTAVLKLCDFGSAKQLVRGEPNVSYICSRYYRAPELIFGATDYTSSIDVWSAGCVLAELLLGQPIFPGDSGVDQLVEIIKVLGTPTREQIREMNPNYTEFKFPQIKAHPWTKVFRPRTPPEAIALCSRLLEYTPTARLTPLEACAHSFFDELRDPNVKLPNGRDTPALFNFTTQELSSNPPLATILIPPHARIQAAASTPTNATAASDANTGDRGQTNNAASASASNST
Excerpt: AlphaScreen assay was used to screen additional kinases. The assay is similarly dependent on the phosphorylation of a peptide substrate. In this assay, an antibody that recognizes phosphorylated substrate is bound to an acceptor bead. The peptide substrate is attached to biotin, which binds to a donor head that contains streptavidin. Thus phosphorylated substrate is bound by antibody and streptavidin, bringing the donor and acceptor heads into close proximity when kinase is not inhibited. The donor produces singlet oxygen which results in emission from the acceptor when they are in close proximity. Conversely, when kinase is inhibited, the donor and acceptor beads are not associated and the emission from the acceptor is reduced.
AlphaScreen assays were done using compounds dissolved in DMSO to a concentration of 20 mM. The compounds were diluted accordingly to the desired final concentrations in each sample well, using 1:3 serial dilution for a total of 8 concentration points.

[7] = target: T6, Ret (Homo sapiens, UniProt P07949); assay: AlphaScreen kinase assay, Ret; settings: read-out: IC50, activity toward kinase Ret
T6 construct: P1378.pET-SF BI-PTP RET H661-R1012 HIS; made in house
T6 sequence (P07949 with tags, fused parts or gaps): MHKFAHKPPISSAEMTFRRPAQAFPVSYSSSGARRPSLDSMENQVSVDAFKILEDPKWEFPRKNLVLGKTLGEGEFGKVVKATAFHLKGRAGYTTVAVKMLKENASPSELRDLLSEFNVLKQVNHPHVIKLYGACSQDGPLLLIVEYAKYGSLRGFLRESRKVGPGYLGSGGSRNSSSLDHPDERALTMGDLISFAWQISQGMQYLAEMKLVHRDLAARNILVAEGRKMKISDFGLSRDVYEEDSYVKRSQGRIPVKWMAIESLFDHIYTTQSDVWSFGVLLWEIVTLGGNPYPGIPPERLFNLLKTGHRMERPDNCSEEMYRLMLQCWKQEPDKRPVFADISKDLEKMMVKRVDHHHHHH

[8] = target: T7, MAP2K1 (Homo sapiens, UniProt Q02750); assay: Z'-Lyte FRET kinase assay (Invitrogen), MAP2K1; settings: read-out: IC50, activity toward kinase MAP2K1
T7 construct: purchased Invitrogen (assay run by Invitrogen)
T7 sequence (Q02750 whole entry): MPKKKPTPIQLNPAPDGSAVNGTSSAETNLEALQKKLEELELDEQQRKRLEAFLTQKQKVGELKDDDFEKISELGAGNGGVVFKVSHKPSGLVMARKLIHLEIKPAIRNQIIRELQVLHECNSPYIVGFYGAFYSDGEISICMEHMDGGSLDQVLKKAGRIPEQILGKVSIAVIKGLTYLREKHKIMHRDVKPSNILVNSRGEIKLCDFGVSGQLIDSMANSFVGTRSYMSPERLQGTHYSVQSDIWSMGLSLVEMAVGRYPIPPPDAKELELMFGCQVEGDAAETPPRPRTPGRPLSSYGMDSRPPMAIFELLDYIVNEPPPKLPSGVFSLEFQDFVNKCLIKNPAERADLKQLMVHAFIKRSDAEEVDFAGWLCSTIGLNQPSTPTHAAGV

[9] = target: T8, Stk6 (Homo sapiens, UniProt O14965); assay: Z'-Lyte FRET kinase assay (Invitrogen), Stk6; settings: read-out: IC50, activity toward kinase Stk6
T8 construct: purchased Invitrogen (Carlsbad, Calif.), screening service
T8 sequence (O14965 1-403): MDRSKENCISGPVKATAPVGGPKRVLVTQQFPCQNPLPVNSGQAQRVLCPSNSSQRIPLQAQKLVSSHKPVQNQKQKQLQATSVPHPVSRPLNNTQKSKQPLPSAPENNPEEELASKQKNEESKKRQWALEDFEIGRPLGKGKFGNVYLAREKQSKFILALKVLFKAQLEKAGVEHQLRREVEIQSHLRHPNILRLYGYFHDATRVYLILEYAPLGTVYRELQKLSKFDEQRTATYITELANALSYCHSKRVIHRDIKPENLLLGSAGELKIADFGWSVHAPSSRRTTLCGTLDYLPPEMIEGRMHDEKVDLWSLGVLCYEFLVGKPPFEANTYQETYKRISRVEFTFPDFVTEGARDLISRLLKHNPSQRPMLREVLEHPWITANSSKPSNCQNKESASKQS

[10] = target: T9, Kit (Homo sapiens, UniProt P10721); assay: AlphaScreen kinase assay, Kit; settings: read-out: IC50, activity toward kinase Kit
T9 construct: P1332.N6 BI PTP KIT M552-K948-X COD; His6 (N); made in house; host or cells: E. coli (PTP1B co-expressed)
T9 sequence (P10721 with tags, fused parts or gaps): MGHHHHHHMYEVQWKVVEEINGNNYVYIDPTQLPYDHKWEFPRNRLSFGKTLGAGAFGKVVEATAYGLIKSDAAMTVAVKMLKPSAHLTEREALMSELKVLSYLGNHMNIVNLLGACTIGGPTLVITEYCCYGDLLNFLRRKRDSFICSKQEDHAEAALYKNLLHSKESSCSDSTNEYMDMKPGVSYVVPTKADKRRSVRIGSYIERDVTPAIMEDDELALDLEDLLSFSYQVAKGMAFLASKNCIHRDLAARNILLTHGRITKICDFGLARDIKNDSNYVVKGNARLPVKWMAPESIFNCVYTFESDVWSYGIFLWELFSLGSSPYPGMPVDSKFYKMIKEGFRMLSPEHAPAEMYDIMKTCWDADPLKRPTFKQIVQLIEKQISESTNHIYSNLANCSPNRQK

[11] = target: T10, Flt1 (Homo sapiens, UniProt P17948); assay: AlphaScreen kinase assay, Flt1; settings: read-out: IC50, activity toward kinase Flt1
T10 construct: P1826.pETN6 BI-PTP FLT1 M799-D1165-X WT; His6 (N); made in house; host or cells: E. coli (PTP1B co-expressed)
T10 sequence (P17948 with tags, fused parts or gaps): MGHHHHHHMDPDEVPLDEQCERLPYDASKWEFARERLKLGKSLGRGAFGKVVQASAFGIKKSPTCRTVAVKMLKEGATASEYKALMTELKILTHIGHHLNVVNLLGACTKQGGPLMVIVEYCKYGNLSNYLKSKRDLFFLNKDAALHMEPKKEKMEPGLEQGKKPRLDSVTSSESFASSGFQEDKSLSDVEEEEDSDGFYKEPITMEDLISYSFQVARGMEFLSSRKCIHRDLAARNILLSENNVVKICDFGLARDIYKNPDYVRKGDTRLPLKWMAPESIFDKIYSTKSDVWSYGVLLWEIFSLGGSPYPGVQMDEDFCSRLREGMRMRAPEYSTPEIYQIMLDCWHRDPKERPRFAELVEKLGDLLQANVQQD

[12] = target: T11, IKK beta (Homo sapiens, UniProt O14920); assay: AlphaScreen kinase assay, IKK beta; settings: read-out: IC50, activity toward kinase IKK beta
T11 sequence (O14920 1-756): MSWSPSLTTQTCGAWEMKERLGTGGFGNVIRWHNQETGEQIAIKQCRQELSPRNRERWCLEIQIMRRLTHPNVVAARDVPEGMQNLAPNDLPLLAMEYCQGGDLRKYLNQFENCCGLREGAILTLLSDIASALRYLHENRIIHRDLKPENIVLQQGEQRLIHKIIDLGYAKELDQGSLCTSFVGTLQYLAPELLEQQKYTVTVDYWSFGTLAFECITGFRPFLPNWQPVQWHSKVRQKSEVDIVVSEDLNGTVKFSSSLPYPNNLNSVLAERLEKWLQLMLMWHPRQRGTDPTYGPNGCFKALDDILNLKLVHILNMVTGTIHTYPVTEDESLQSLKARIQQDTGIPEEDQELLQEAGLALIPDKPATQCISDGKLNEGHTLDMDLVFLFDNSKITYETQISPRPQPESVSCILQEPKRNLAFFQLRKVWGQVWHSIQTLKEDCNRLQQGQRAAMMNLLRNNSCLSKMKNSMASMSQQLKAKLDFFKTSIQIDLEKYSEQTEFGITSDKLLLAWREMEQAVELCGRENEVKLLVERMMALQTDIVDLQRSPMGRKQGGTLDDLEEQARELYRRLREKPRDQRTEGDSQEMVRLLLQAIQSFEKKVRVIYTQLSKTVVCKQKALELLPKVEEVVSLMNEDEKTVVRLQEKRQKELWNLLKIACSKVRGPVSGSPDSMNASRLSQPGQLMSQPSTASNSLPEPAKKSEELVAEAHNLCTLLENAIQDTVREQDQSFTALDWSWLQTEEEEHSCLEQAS

IC50 [1]: ≤ 10 µM
IC50 [2]: ≤ 10 µM
IC50 [3]: ≤ 10 µM
IC50 [4]: ≤ 10 µM
IC50 [5]: ≤ 10 µM
IC50 [6]: ≤ 10 µM
IC50 [7]: ≤ 10 µM
Compound: NC(=O)c1ccc(-c2ccnc3[nH]cc(C(=O)c4cccc(Cl)c4Cl)c23)cc1 [Compound P-0053]

IC50 [8]: ≤ 10 µM
IC50 [1]: ≤ 10 µM
IC50 [2]: ≤ 10 µM
IC50 [9]: ≤ 10 µM
IC50 [5]: ≤ 10 µM
IC50 [6]: ≤ 10 µM
Compound: O=C(CCBr)c1c[nH]c2ncccc12 [Compound P-0081]

IC50 [10]: ≤ 10 µM
IC50 [11]: ≤ 10 µM
IC50 [12]: ≤ 10 µM
Compound: CSc1cccc(-c2c[nH]c3ncccc23)c1 [Compound P-0315]

IC50 [12]: ≤ 10 µM
Compound: C[C@H]1CN(c2ccc(-c3ccnc4[nH]ccc34)cn2)CCN1 [Compound P-0410]

IC50 [11]: ≤ 10 µM
IC50 [12]: ≤ 10 µM
Compound: c1cc(-c2ccsc2)c2cc[nH]c2n1 [Compound P-0629]

IC50 [10]: ≤ 10 µM
IC50 [12]: ≤ 10 µM
Compound: COc1ccc(-c2c[nH]c3ncccc23)cc1F [Compound P-0690]

IC50 [12]: ≤ 10 µM
Compound: c1ccc2oc(-c3ccnc4[nH]ccc34)cc2c1 [Compound P-0790]

IC50 [12]: ≤ 10 µM
Compound: COc1ccc(C#Cc2ccnc3[nH]ccc23)cc1 [Compound P-0920]

IC50 [12]: ≤ 10 µM
Compound: CCS(=O)(=O)c1ccc(-c2c(C)[nH]c3ncccc23)cc1 [Compound P-1223]
